Test [1] concerns the target His-tagged KRAS G12D protein (Homo sapiens, UniProt P01116, G12D). Kind of test: KRAS G12D TR-FRET Assay. The test is classed as binding. (In TR-FRET formats the signal depends on donor and acceptor labels being close together.)
Test [2] has as its target GDP-bound KRAS protein (aa 1-169), containing both G12D and C118A amino acid substitutions (Homo sapiens, UniProt P01116, C118A/G12D). Put plainly: KRAS G12D Coupled Nucleotide Exchange Assay. The test is classed as biochemical. The settings on record: 2 h compound pre-incubation. As to the method: Following compound pre-incubation, purified SOS protein (aa 564-1049) and GTP (Roche 10106399001) were added to the assay wells and incubated for an additional 30 min. […] The assay plates were then read on a PerkinElmer EnVision Multilabel Reader, using AlphaScreen® technology, and data were analyzed using a 4-parameter logistic model to calculate IC50 values.

For test [3], the system named is Phosphorylation of ERK1/2 in A-427 cells. Put plainly: Phospho-ERK1/2 MSD Assay (A-427 cells). The test is classed as cell-based. The settings on record: 2 h treatment, read-out: p-ERK (A427 cells) IC50. In short, it runs like this: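 ERK1/2 phosphorylation measured by Meso Scale whole-cell lysate assay after A-427 cells were exposed to a titration of compound for 2 h at 37 °C.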

For test [4], the system named is Phosphorylation of ERK1/2 in AsPC-1 cells. Kind of test: Phospho-ERK1/2 MSD Assay (AsPC-1 cells). In kind it is cell-based. As to conditions: 2 hours treatment, read-out: p-ERK (AsPC-1 cells) IC50. In short, it runs like this:
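Read-out: MSD electrochemiluminescent detection of phosphorylated ERK1/2 in whole-cell lysates, fitted to a 4-parameter logistic curve for IC50. Prior to lysis, AsPC-1 cells (25,000 per well) received a 2 h compound dose-response at 37 °C.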

Read-outs that look alike come from different tables or passages of the source.

Chain of GDP-bound KRAS protein (aa 1-169), containing both G12D and C118A amino acid substitutions (P01116 1-169 isoform P01116-2 G12D/C118A): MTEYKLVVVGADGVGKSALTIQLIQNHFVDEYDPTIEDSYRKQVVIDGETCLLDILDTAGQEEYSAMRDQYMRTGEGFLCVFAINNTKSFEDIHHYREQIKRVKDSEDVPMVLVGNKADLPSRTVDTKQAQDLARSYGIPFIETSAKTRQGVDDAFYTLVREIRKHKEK
Chain of His-tagged KRAS G12D protein (P01116 1-188 isoform P01116-2 G12D): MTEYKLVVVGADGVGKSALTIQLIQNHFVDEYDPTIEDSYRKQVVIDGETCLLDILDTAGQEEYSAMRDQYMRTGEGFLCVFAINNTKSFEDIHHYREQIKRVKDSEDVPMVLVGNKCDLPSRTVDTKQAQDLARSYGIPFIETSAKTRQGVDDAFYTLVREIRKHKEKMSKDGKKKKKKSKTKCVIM

What is called IC50 is the concentration that inhibits the measured activity by half. Consider `CCc1cccc2cc(O)cc(-c3ccc4c(N5C[C@H]6CC[C@@H](C5)N6)nc(OC[C@@]56CCCN5C[C@H](F)C6)nc4c3C)c12` [Example 168, 4-(4-((1R,5S)-3,8-diazabicyclo[3.2.1]octan-3-yl)-2-(((2R,7aS)-2-fluorotetrahydro-1H-pyrrolizin-7a(5H)-yl)methoxy)-8-methylquinazolin-7-yl)-5-ethylnaphthalen-2-ol], for which the concentration for half-maximal inhibition (IC50) in test [1] was found to be 4 nM; in test [3] (Homo sapiens, A-427, 2 h), 78 nM; in test [4] (Homo sapiens, ASPC1, 2 h) it was 243 nM. In test [2], the “Avg 2 h Coupled Exchange IC50” value worked out at 8 nM.

As for `N#Cc1cc(O)cc(-c2c(F)cc3c(N4C[C@H]5CC[C@@H](C4)N5)nc(OC[C@@]45CCCN4C[C@H](F)C5)nc3c2F)c1C1CC1` [Example 227, 3-(4-((1R,5S)-3,8-Diazabicyclo[3.2.1]octan-3-yl)-6,8-difluoro-2-(((2R,7aS)-2-fluorotetrahydro-1H-pyrrolizin-7a(5H)-yl)methoxy)quinazolin-7-yl)-2-cyclopropyl-5-hydroxybenzonitrile], the IC50 in test [1] worked out at 3 nM; in test [3] (Homo sapiens, A-427, 2 h), 48 nM; in test [4] (Homo sapiens, ASPC1, 2 h) it was 308 nM. Besides, the “Avg 2 h Coupled Exchange IC50” value in test [2] came to 4 nM.

On to `CCc1cccc2cc(O)cc(-c3c(Cl)cc4c(N5C[C@H]6CC[C@@H](C5)N6)nc(OC[C@@]56CCCN5C[C@H](F)C6)nc4c3F)c12` [Example 170, 4-(4-((1R,5S)-3,8-diazabicyclo[3.2.1]octan-3-yl)-6-chloro-8-fluoro-2-(((2R,7aS)-2-fluorotetrahydro-1H-pyrrolizin-7a(5H)-yl)methoxy)quinazolin-7-yl)-5-ethylnaphthalen-2-ol], for which the IC50 stood at 3 nM in test [1]; 86 nM in test [3] (Homo sapiens, A-427, 2 h); 126 nM in test [4] (Homo sapiens, ASPC1, 2 h). Besides, in test [2], the “Avg 2 h Coupled Exchange IC50” value worked out at 3 nM.

Turning to `C#Cc1c(F)ccc2cc(O)cc(-c3ccc4c(N5C[C@H]6CC[C@@H](C5)N6)nc(OC[C@@]56CCCN5C[C@H](F)C6)nc4c3F)c12` [Example 186, 4-(4-((1R,5S)-3,8-diazabicyclo[3.2.1]octan-3-yl)-8-fluoro-2-(((2R,7aS)-2-fluorotetrahydro-1H-pyrrolizin-7a(5H)-yl)methoxy)quinazolin-7-yl)-5-ethynyl-6-fluoronaphthalen-2-ol], the IC50 in test [1] worked out at 3 nM; in test [3] (Homo sapiens, A-427, 2 h), 1 nM; in test [4] (Homo sapiens, ASPC1, 2 h), 5 nM. In addition, in test [2], the “Avg 2 h Coupled Exchange IC50” value is 3 nM.

As to `CCc1c(F)ccc2cc(O)cc(-c3c(F)cc4c(N5C[C@H]6CC[C@@H](C5)N6)nc(OC[C@@H]5CCC(=O)N5)nc4c3F)c12` [Example 126, (5S)-5-(((4-((1R,5S)-3,8-diazabicyclo[3.2.1]octan-3-yl)-7-(8-ethyl-7-fluoro-3-hydroxynaphthalen-1-yl)-6,8-difluoroquinazolin-2-yl)oxy)methyl) pyrrolidin-2-one], the IC50 is 6 nM in test [1]; 388 nM in test [3] (Homo sapiens, A-427, 2 h); 1220 nM in test [4] (Homo sapiens, ASPC1, 2 h). The “Avg 2 h Coupled Exchange IC50” value in test [2] worked out at 2 nM.

On to `CCc1cccc2cc(O)cc(-c3ccc4c(N5C[C@H]6CC[C@@H](C5)N6)nc(OC[C@@]56CCCN5C[C@H](F)C6)nc4c3F)c12` [Example 169, 4-(4-((1R,5S)-3,8-diazabicyclo[3.2.1]octan-3-yl)-8-fluoro-2-(((2R,7aS)-2-fluorotetrahydro-1H-pyrrolizin-7a(5H)-yl)methoxy)quinazolin-7-yl)-5-ethylnaphthalen-2-ol], for which the IC50 in test [1] turned out to be 5 nM; in test [3] (Homo sapiens, A-427, 2 h) it was 9 nM; in test [4] (Homo sapiens, ASPC1, 2 h) it was 72 nM. In test [2], the “Avg 2 h Coupled Exchange IC50” value amounted to 5 nM.

In the case of `Oc1cc(-c2ccc3c(N4C[C@H]5CC[C@@H](C4)N5)nc(OC[C@@]45CCCN4C[C@H](F)C5)nc3c2F)c2c(F)cccc2c1` [Example 141, 4-(4-((1R,5S)-3,8-diazabicyclo[3.2.1]octan-3-yl)-8-fluoro-2-(((2R,7aS)-2-fluorotetrahydro-1H-pyrrolizin-7a(5H)-yl)methoxy)quinazolin-7-yl)-5-fluoronaphthalen-2-ol], the IC50 in test [1] was 2 nM; in test [3] (Homo sapiens, A-427, 2 h), 10 nM; in test [4] (Homo sapiens, ASPC1, 2 h) it was 93 nM. Further, the “Avg 2 h Coupled Exchange IC50” value in test [2] was found to be 1 nM.

`C#Cc1cccc2cc(O)cc(-c3ccc4c(N5[C@@H]6CC[C@H]5CNC6)nc(OC[C@@]56CCCN5C[C@H](F)C6)nc4c3F)c12` [Example 99, 4-(4-((1R,5S)-3,8-Diazabicyclo[3.2.1]octan-8-yl)-8-fluoro-2-(((2R,7aS)-2-fluorotetrahydro-1H-pyrrolizin-7a(5H)-yl)methoxy)quinazolin-7-yl)-5-ethynylnaphthalen-2-ol]: the IC50 is 3 nM in test [1]; 5 nM in test [3] (Homo sapiens, A-427, 2 h); 19 nM in test [4] (Homo sapiens, ASPC1, 2 h). Besides, in test [2], the “Avg 2 h Coupled Exchange IC50” value was determined as 3 nM.

In the case of `CCc1c(F)ccc2cc(O)cc(-c3ccc4c(N5C[C@H]6CC[C@@H](C5)N6)nc(OC[C@@]56CCCN5C[C@H](F)C6)nc4c3F)c12` [Example 87, 4-(4-((1R,5S)-3,8-diazabicyclo[3.2. 1]octan-3-yl)-8-fluoro-2-(((2R,7aS)-2-fluorotetrahydro-1H-pyrrolizin-7a(5H)-yl)methoxy)quinazolin-7-yl)-5-ethyl-6-fluoronaphthalen-2-ol], the IC50 turned out to be 7 nM in test [1]; 6 nM in test [3] (Homo sapiens, A-427, 2 h); 16 nM in test [4] (Homo sapiens, ASPC1, 2 h). Besides, the “Avg 2 h Coupled Exchange IC50” value in test [2] is 10 nM.

As to `Oc1cc(-c2ccc3c(N4[C@@H]5CNC[C@H]4COC5)nc(OCC45CCCN4CC(F)(F)C5)nc3c2F)c2ccccc2c1` (stereo partly drawn) [Example 10, 4-(4-((1R,5S)-3-oxa-7,9-diazabicyclo[3.3. 1]nonan-9-yl)-2-((2,2-difluorotetrahydro-1H-pyrrolizin-7a(5H)-yl)methoxy)-8-fluoroquinazolin-7-yl)naphthalen-2-ol], the IC50 in test [1] worked out at 106 nM; in test [3] (Homo sapiens, A-427, 2 h), 5240 nM; in test [4] (Homo sapiens, ASPC1, 2 h), 6270 nM. Also, in test [2], the “Avg 2 h Coupled Exchange IC50” value came to 132 nM.

Take `Nc1cc(-c2c(F)cc3c(N4C[C@H]5CC[C@@H](C4)N5)nc(OC[C@@]45CCCN4C[C@H](F)C5)nc3c2F)c2ccccc2c1` [Example 116, 4-(4-((1R,5S)-3,8-diazabicyclo[3.2.1]octan-3-yl)-6,8-difluoro-2-(((2R,7aS)-2-fluorotetrahydro-1H-pyrrolizin-7a(5H)-yl)methoxy)quinazolin-7-yl)naphthalen-2-amine]: the IC50 worked out at 30 nM in test [1]; 254 nM in test [3] (Homo sapiens, A-427, 2 h); 454 nM in test [4] (Homo sapiens, ASPC1, 2 h). The “Avg 2 h Coupled Exchange IC50” value in test [2] was found to be 5 nM.

Regarding `Oc1cc(-c2c(F)cc3c(N4C[C@H]5COC[C@@H](C4)N5)nc(OC[C@@]45CCCN4C[C@H](F)C5)nc3c2F)c2ccccc2c1` [Example 15, 4-(4-((1R,5S)-3-oxa-7,9-diazabicyclo[3.3. 1]nonan-7-yl)-6,8-difluoro-2-(((2R,7aS)-2-fluorotetrahydro-1H-pyrrolizin-7a(5H)-yl)methoxy)quinazolin-7-yl)naphthalen-2-ol], the IC50 in test [1] came out at 20 nM; in test [3] (Homo sapiens, A-427, 2 h) it was 1550 nM; in test [4] (Homo sapiens, ASPC1, 2 h) it was 3220 nM. Moreover, the “Avg 2 h Coupled Exchange IC50” value in test [2] stood at 14 nM.

As to `CCc1c(F)ccc2cc(O)cc(-c3c(F)cc4c(N5C[C@H]6CC[C@@H](C5)N6)nc(OCC(C)(C)O)nc4c3F)c12` [Example 65, 4-(4-((1R,5S)-3,8-diazabicyclo[3.2. 1]octan-3-yl)-6,8-difluoro-2-(2-hydroxy-2-methylpropoxy)quinazolin-7-yl)-5-ethyl-6-fluoronaphthalen-2-ol], the IC50 in test [1] is 7 nM; in test [3] (Homo sapiens, A-427, 2 h), 699 nM; in test [4] (Homo sapiens, ASPC1, 2 h), 547 nM. Moreover, the “Avg 2 h Coupled Exchange IC50” value in test [2] is 8 nM.

Consider `CCc1c(F)ccc2cc(O)cc(-c3c(F)cc4c(N5[C@@H]6CNC[C@H]5COC6)nc(OC[C@@]56CCCN5C[C@H](F)C6)nc4c3F)c12` [Example 151, 4-(4-((1R,5S)-3-oxa-7,9-diazabicyclo[3.3.1]nonan-9-yl)-6,8-difluoro-2-(((2R,7aS)-2-fluorotetrahydro-1H-pyrrolizin-7a(5H)-yl)methoxy)quinazolin-7-yl)-5-ethyl-6-fluoronaphthalen-2-ol], for which the IC50 in test [1] stood at 4 nM; in test [3] (Homo sapiens, A-427, 2 h) it was 65 nM; in test [4] (Homo sapiens, ASPC1, 2 h), 123 nM. Also, in test [2], the “Avg 2 h Coupled Exchange IC50” value came to 3 nM.

With `CCc1c(F)ccc2cc(O)cc(-c3cc(C)c4c(N5C[C@H]6CC[C@@H](C5)N6)nc(OC[C@@]56CCCN5C[C@H](F)C6)nc4c3F)c12` [Example 230], the IC50 was 4 nM in test [1], 1 nM in test [2] (read-out: Avg 2 h Coupled Exchange IC50), 33 nM in test [3] and 68 nM in test [4].

Consider `CCC(O)(CC)COc1nc(N2C[C@H]3CC[C@@H](C2)N3)c2cc(F)c(-c3cc(O)cc4ccc(F)c(F)c34)c(F)c2n1` [Example 124, 4-(4-((1R,5S)-3,8-diazabicyclo[3.2.1]octan-3-yl)-2-(2-ethyl-2-hydroxybutoxy)-6,8-difluoroquinazolin-7-yl)-5,6-difluoronaphthalen-2-ol], for which the 50% inhibitory concentration (IC50) in test [1] came to 34 nM; in test [3] (Homo sapiens, A-427, 2 h) it was 4320 nM; in test [4] (Homo sapiens, ASPC1, 2 h) it was 2410 nM. For the same compound, the “Avg 2 h Coupled Exchange IC50” value in test [2] was 19 nM.
